Measurements: US4424223A, “Polycyclic compounds containing a double bond in the D-ring pharmaceutical compositions containing them, and methods of treating psoriasis with them” (Richter Gedeon Vegyeszeti Gyar RT, priority 1981, dated 1984)
Structures can show the parent of a compound that is named as a salt.

How the values were obtained:
[1] = system: phosphodiesterase isolated from rat brain; experiment: Inhibition of phosphodiesterase isolated from rat brain (radioisotopic, 3H-c-AMP); assay type: biochemical; conditions: for effect of the test compound on enzyme activity: 20 minutes incubation; for IC50: rat brain, read off from curve, 50% decrease of enzyme activity, read-out: I50 on phosphodiesterase
Method: (§1) The model experiments were performed by means of phosphodiesterase isolated from animal tissues (rat brain, cattle brain, cattle heart). The enzyme was isolated by the technique of J. Schro/ der and H. V. Richenberg [Biochem. Biophys. Acta 302, 50 (1973)] whereupon the phosphodiesterase isolated was purified according to the method of J. G. Hardman and E. W. Sutherland [J. Biol. Chem. 240, 3704 (1965)] and the activity of the purified enzyme was measured by a radioisotopic method developed by G. Po/ ch, in the presence of an excess amount of c-AMP tricium-labeled (10.1 mmoles of a c-AMP substrate containing 2.59K Bq of 3H-c-AMP), in an incubator. The measurement was first carried out without the inhibitory substance and then in the presence of 17,18-dehydro-apivincaminol-3',4',5'-trimethoxy-benzoate as an inhibitor agent, after an incubation time of 20 minutes [N.S. Arch. Pharmacol. 268, 272 (1971)]. From the test compound a 1 mmole stock solution was prepared with aqueous hydrochloric acid solution and different amounts of the stock solution were added to the enzyme preparates corresponding to 5×10^-6, 1×10^-5 and 5×10^-5 mole/lit. of the test compound. A solution of papaverine used as reference compound is added to the enzyme preparate in an analogous manner.
The activity of the solutions containing 17,18-dehydro-apovincaminol-3',4',5'-trimethoxy-benzoate and papaverine was expressed in percents of the control (enzyme solution without any inhibitory substance, 100%). The results obtained on an enzyme isolated from rat brain are as follows:
(§2) The tests on an enzyme isolated from cattle brain and cattle heart, resp. were carried out in an analogous way.

[2] = system: phosphodiesterase isolated from cattle brain; experiment: Inhibition of phosphodiesterase isolated from cattle brain (radioisotopic, 3H-c-AMP); assay type: biochemical; conditions: for IC50: cattle brain, read off from curve, 50% decrease of enzyme activity, read-out: I50 on phosphodiesterase
Method: as §1, §2

[3] = system: phosphodiesterase isolated from cattle heart; experiment: Inhibition of phosphodiesterase isolated from cattle heart (radioisotopic, 3H-c-AMP); assay type: biochemical; conditions: for IC50: cattle heart, read off from curve, 50% decrease of enzyme activity, read-out: I50 on phosphodiesterase
Method: as §1, §2

[4] = system: psoriasis; experiment: Clinical test of topical creams on patients suffering from psoriasis (plaque method); assay type: in vivo, patients (human); conditions: cream with 2% active ingredient, scale 0-3
Method: The first clinical tests were carried out with preparations for topical use, e.g. ointments, creams, solutions, tinctures, pastes, aerosols, etc. containing the new compound according to the invention as an active ingredient. More particularly, creams containing 2%, 1%, 0.5%, 0.25% and […], resp. of 17,18-dehydro-apovincaminol-3',4',5'-trimethoxy-benzoate were employed.
Clinical tests were performed on patients suffering from psoriasis. During the tests the patients have not received any systemic, e.g. immunosuppressive, cytostatic or glucocorticoid treatment for their basic disease.
Groups of 5 were examined by the so-called plaque method. One side of symmetrical skin lesions was treated by a creme containing the active ingredient in the desired concentration, while on the other side a placebo was applied. The remaining psoriatic sites on the skin were subjected to other topical treatments for example with ointments containing flumethasone pivalate and salicylic acid, as active ingredient, which are widely used for the treatment of psoriasis.
The tests were started with creams having a higher active ingredient concentration and then further patients were treated with preparations containing the smallest effective active ingredient concentration.
The efficiency was evaluated upon observing three symptoms: inflammation, infiltration and desquamation (peeling). The intensity of the symptoms was qualified by scores between 0 and 3. The total number of scores served as a measure of the reduction of symptoms. The results were evaluated by methods of mathematical statistics. During the treatment undesirable side effects have never been observed.
Evaluations were made before the treatment (I), after a one-week treatment (II) and after a two-week treatment (III). The results set forth in the following table are the average number of scores (total number of scores/number of patient) for creams containing 2% of active ingredient.

[5] = system: psoriasis; conditions: phosphodiesterase inhibitor; Voorhees et al., Arch. Derm. 104, 359 (1971); cited from earlier work
[6] = rat brain enzyme, 1 × 10^-5 mole/lit.
[7] = rat brain enzyme, 5 × 10^-5 mole/lit.
[8] = rat brain enzyme, 5 × 10^-6 mole/lit.

## CC[C@]12C=CCN3CCc4c(n(c5ccccc45)C(COC(=O)c4cc(OC)c(OC)c(OC)c4)=C1)[C@@H]32 [17,18-Dehydro-apovincaminol-3',4',5'-trimethoxy-benzoate]
[1]; rat brain enzyme, versus papaverine
  times more effective than papaverine: 7 times
[2]; cattle brain enzyme, versus papaverine
  times more effective than papaverine: 6 times
[3]; cattle heart enzyme, versus papaverine
  times more effective than papaverine: 18 times
[4]; I: before the treatment
  Average number of scores, Desquamation: 2.0 scores
  Average number of scores, Infiltration: 2.6 scores
  Average number of scores, Inflammation: 2.8 scores
[4]; II: after one-week treatment
  Average number of scores, Desquamation: 0.8 scores
  Average number of scores, Infiltration: 1.6 scores
  Average number of scores, Inflammation: 2.2 scores
[4]; III: after two-week treatment
  Average number of scores, Desquamation: 0.2 scores
  Average number of scores, Infiltration: 0.6 scores
  Average number of scores, Inflammation: 1.6 scores

## CC[C@]12C=CCN3CCc4c(n(c5ccccc45)C(COC(=O)c4cc(OC)c(OC)c(OC)c4)=C1)[C@@H]32 [17,18-dehydro-apovincaminol-3',4',5'-trimethoxy-benzoate.HCl]
[1]; [6]
  effect of the test compound on enzyme activity: 40.7 % of the control
[1]; [7]
  effect of the test compound on enzyme activity: 38.6 % of the control
[1]; [8]
  effect of the test compound on enzyme activity: 84.7 % of the control
[1]
  IC50: 10 µM
[2]
  IC50: 15 µM
[3]
  IC50: 3 µM

## COc1ccc(Cc2nccc3cc(OC)c(OC)cc23)cc1OC [papaverine.HCl, papaverine, reference compound]
[1]; [6]
  effect of the test compound on enzyme activity: 89.7 % of the control
[1]; [7]
  effect of the test compound on enzyme activity: 60.5 % of the control
[1]; [8]
  effect of the test compound on enzyme activity: 91.2 % of the control
[1]
  IC50: 70 µM
[2]
  IC50: 90 µM
[3]
  IC50: 50 µM

## COc1ccc(Cc2nccc3cc(OC)c(OC)cc23)cc1OC [papaverine]
[5]
  effect on psoriasis: successfully influenced psoriasis
